The first assay addresses T1, human MGL from HeLa cells (Homo sapiens, UniProt Q99685).
T1 construct: combining endogenously expressed MGL from HeLa cells with test compounds; endogenous in cells; host or cells: HeLa cells / cell homogenates
T1 sequence (Q99685 1-303): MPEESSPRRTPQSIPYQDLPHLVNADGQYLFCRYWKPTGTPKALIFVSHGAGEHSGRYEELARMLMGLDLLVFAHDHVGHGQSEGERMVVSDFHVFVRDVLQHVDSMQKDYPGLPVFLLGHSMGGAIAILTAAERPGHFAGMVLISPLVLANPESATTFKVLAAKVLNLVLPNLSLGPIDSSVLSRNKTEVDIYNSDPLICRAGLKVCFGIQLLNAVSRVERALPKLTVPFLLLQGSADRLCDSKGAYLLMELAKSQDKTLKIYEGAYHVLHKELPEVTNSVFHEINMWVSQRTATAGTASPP
The assay is described as follows: In vitro MGL activity assay: [glycerol-1,3-3H]-oleyl glycerol cleavage by MGL from HeLa cells. It counts as biochemical. The conditions noted are these: 300 nM [Glycerol-1,3-3H]-oleyl glycerol, one hour. The source says:
MGL is the predominant hydrolase in HeLa cells/cell homogenates.
For orientation: IC50 means the midpoint of a concentration-inhibition curve. Read a high IC50 as lower potency. Take `C[C@H]1c2nn(C)c(-c3cc(F)c(F)c(F)c3)c2CCN1C(=O)c1cnn(C)c1C1CCC1` [Example 333, (5-Cyclobutyl-1-methyl-pyrazol-4-yl)-[(7S)-2,7-dimethyl-3-(3,4,5-trifluorophenyl)-5,7-dihydro-4H-pyrazolo[3,4-c]pyridin-6-yl]methanone]: half-maximal inhibition (IC50) required 25.4 nM. This counts as double-digit nanomolar.

As for `C[C@H]1c2nn(C)c(-c3cc(F)c(F)c(F)c3)c2CCN1C(=O)c1cnn(C)c1C1(C)CC1` [Example 334, [(7S)-2,7-Dimethyl-3-(3,4,5-trifluorophenyl)-5,7-dihydro-4H-pyrazolo[3,4-c]pyridin-6-yl]-[1-methyl-5-(1-methylcyclopropyl)pyrazol-4-yl]methanone], half-maximal inhibition (IC50) required 2790 nM.

As to `C[C@H]1c2nn(C)c(-c3cc(F)c(F)c(F)c3)c2CCN1C(=O)c1cnn(C)c1C1(F)CC1` [Example 335, [(7S)-2,7-Dimethyl-3-(3,4,5-trifluorophenyl)-5,7-dihydro-4H-pyrazolo[3,4-c]pyridin-6-yl]-[5-(1-fluorocyclopropyl)-1-methyl-pyrazol-4-yl]methanone], the IC50 came out at 32.1 nM.

`C[C@H]1c2nn(C)c(-c3cc(F)c(F)c(F)c3)c2CCN1C(=O)c1cnn(C)c1C1CC1(F)F` (stereo partly drawn) [Example 336, (5-(2,2-Difluorocyclopropyl)-1-methyl-1H-pyrazol-4-yl)((S)-2,7-dimethyl-3-(3,4,5-trifluorophenyl)-4,5-dihydro-2H-pyrazolo[3,4-c]pyridin-6-yl)methanone] had an IC50 of 8.7 nM. Compared with the last compound, the IC50 is about 3.7-fold lower.

As for `CC1CC1c1c(C(=O)N2CCc3c(nn(C)c3-c3cc(F)c(F)c(F)c3)[C@@H]2C)cnn1C` (stereo partly drawn) [Example 341, ((S)-2,7-Dimethyl-3-(3,4,5-trifluorophenyl)-2,4,5,7-tetrahydro-6H-pyrazolo[3,4-c]pyridin-6-yl)(1-methyl-cis-5-(2-methylcyclopropyl)-1H-pyrazol-4-yl)methanone], the IC50 was 9.53 nM.

Still in this assay, the particulars now being: 300 nM [Glycerol-1,3-3H]-oleyl glycerol, one hour incubation.
In the case of `COc1cnccc1C(=O)N1CCc2c(nn(C)c2-c2cc(F)c(F)c(F)c2)[C@@H]1C` [Example 311, [(7S)-2,7-Dimethyl-3-(3,4,5-trifluorophenyl)-5,7-dihydro-4H-pyrazolo[3,4-c]pyridin-6-yl]-(3-methoxy-4-pyridyl)methanone], the IC50 was 87.1 nM.

The compound `COc1cc(C(=O)N2CCc3c(nn(C)c3-c3cc(F)c(F)c(F)c3)[C@@H]2C)ccn1` [Example 312, [(7S)-2,7-Dimethyl-3-(3,4,5-trifluorophenyl)-5,7-dihydro-4H-pyrazolo[3,4-c]pyridin-6-yl]-(2-methoxy-4-pyridyl)methanone] registered an IC50 of 81.7 nM.

In turn, `COc1cncc(C(=O)N2CCc3c(nn(C)c3-c3cc(F)c(F)c(F)c3)[C@@H]2C)c1C` [Example 313, [(7S)-2,7-Dimethyl-3-(3,4,5-trifluorophenyl)-5,7-dihydro-4H-pyrazolo[3,4-c]pyridin-6-yl]-(5-methoxy-4-methyl-3-pyridyl)methanone] yielded an IC50 of 38 nM.

On to `COc1nccc(C(=O)N2CCc3c(nn(C)c3-c3cc(F)c(F)c(F)c3)[C@@H]2C)c1C` [Example 314, [(7S)-2,7-Dimethyl-3-(3,4,5-trifluorophenyl)-5,7-dihydro-4H-pyrazolo[3,4-c]pyridin-6-yl]-(2-methoxy-3-methyl-4-pyridyl)methanone], for which half-maximal inhibition (IC50) required 20.6 nM.

The compound `COc1nccc(C(=O)N2CCc3c(nn(C)c3-c3cc(F)c(F)c(F)c3)[C@@H]2C)c1F` [Example 315, [(7S)-2,7-Dimethyl-3-(3,4,5-trifluorophenyl)-5,7-dihydro-4H-pyrazolo[3,4-c]pyridin-6-yl]-(3-fluoro-2-methoxy-4-pyridyl)methanone] came in with an IC50 of 42.4 nM.

`COc1nccc(C(=O)N2CCc3c(nn(C)c3-c3cc(F)c(F)c(F)c3)[C@@H]2C)c1Cl` [Example 316, (3-Chloro-2-methoxy-4-pyridyl)-[(7S)-2,7-dimethyl-3-(3,4,5-trifluorophenyl)-5,7-dihydro-4H-pyrazolo[3,4-c]pyridin-6-yl]methanone] had a concentration for half-maximal inhibition (IC50) of 17.2 nM.

Compound `COc1ccnc(C(=O)N2CCc3c(nn(C)c3-c3cc(F)c(F)c(F)c3)[C@@H]2C)c1Cl` [Example 317, (3-Chloro-4-methoxy-2-pyridyl)-[(7S)-2,7-dimethyl-3-(3,4,5-trifluorophenyl)-5,7-dihydro-4H-pyrazolo[3,4-c]pyridin-6-yl]methanone] yielded an IC50 of 30.1 nM.

As to `C[C@H]1c2nn(C)c(-c3cc(F)c(F)c(F)c3)c2CCN1C(=O)c1cncc(-n2cccn2)c1` [Example 318, [(7S)-2,7-Dimethyl-3-(3,4,5-trifluorophenyl)-5,7-dihydro-4H-pyrazolo[3,4-c]pyridin-6-yl]-(5-pyrazol-1-yl-3-pyridyl)methanone], the 50% inhibitory concentration (IC50) is 178 nM.

`Cc1ccc(-n2nccn2)c(C(=O)N2CCc3c(nn(C)c3-c3cc(F)c(F)c(F)c3)[C@@H]2C)n1` [Example 319, [(7S)-2,7-Dimethyl-3-(3,4,5-trifluorophenyl)-5,7-dihydro-4H-pyrazolo[3,4-c]pyridin-6-yl]-[6-methyl-3-(triazol-2-yl)-2-pyridyl]methanone] showed a half-maximal inhibitory concentration (IC50) of 255 nM.

In turn, `C[C@H]1c2nn(C)c(-c3cc(F)c(F)c(F)c3)c2CCN1C(=O)c1cccc(-n2cccn2)n1` [Example 320, [(7S)-2,7-Dimethyl-3-(3,4,5-trifluorophenyl)-5,7-dihydro-4H-pyrazolo[3,4-c]pyridin-6-yl]-(6-pyrazol-1-yl-2-pyridyl)methanone] gave an IC50 of 79 nM. This IC50 lies about 3.2-fold lower than the previous one.

Consider `Cc1nc(C(=O)N2CCc3c(nn(C)c3-c3cc(F)c(F)c(F)c3)[C@@H]2C)nn1-c1ccccc1` [Example 321, [(7S)-2,7-Dimethyl-3-(3,4,5-trifluorophenyl)-5,7-dihydro-4H-pyrazolo[3,4-c]pyridin-6-yl]-(5-methyl-1-phenyl-1,2,4-triazol-3-yl)methanone], for which half-maximal inhibition (IC50) was put at 14.8 nM.

In turn, `Cc1nc(C(=O)N2CCc3c(nn(C)c3-c3cc(F)c(F)c(F)c3)[C@@H]2C)nn1-c1ccc(F)cc1` [Example 322, [(7S)-2,7-Dimethyl-3-(3,4,5-trifluorophenyl)-5,7-dihydro-4H-pyrazolo[3,4-c]pyridin-6-yl]-[1-(4-fluorophenyl)-5-methyl-1,2,4-triazol-3-yl]methanone] returned a concentration for half-maximal inhibition (IC50) of 34.6 nM. This IC50 is about 2.3-fold higher than that of the compound before.

On to `C[C@H]1c2nn(C)c(-c3cc(F)c(F)c(F)c3)c2CCN1C(=O)c1ncn(-c2ccccn2)n1` [Example 323, [(7S)-2,7-Dimethyl-3-(3,4,5-trifluorophenyl)-5,7-dihydro-4H-pyrazolo[3,4-c]pyridin-6-yl]-[1-(2-pyridyl)-1,2,4-triazol-3-yl]methanone], for which half-maximal inhibition (IC50) required 65.6 nM.

As for `C[C@H]1c2nn(C)c(-c3cc(F)c(F)c(F)c3)c2CCN1C(=O)c1ncn(-c2ncccc2F)n1` [Example 324, [(7S)-2,7-Dimethyl-3-(3,4,5-trifluorophenyl)-5,7-dihydro-4H-pyrazolo[3,4-c]pyridin-6-yl]-[1-(3-fluoro-2-pyridyl)-1,2,4-triazol-3-yl]methanone], inhibition was half-maximal at 41.7 nM (IC50).

Regarding `C[C@H]1c2nn(C)c(-c3cc(F)c(F)c(F)c3)c2CCN1C(=O)c1ccc(-c2ccccn2)s1` [Example 325, [(7S)-2,7-Dimethyl-3-(3,4,5-trifluorophenyl)-5,7-dihydro-4H-pyrazolo[3,4-c]pyridin-6-yl]-[5-(2-pyridyl)-2-thienyl]methanone], the half-inhibitory concentration (IC50) was 7.9 nM.

For `COc1cnc(C(=O)N2CCc3c(nn(C)c3-c3cc(F)c(F)c(F)c3)[C@@H]2C)cn1` [Example 326, [(7S)-2,7-Dimethyl-3-(3,4,5-trifluorophenyl)-5,7-dihydro-4H-pyrazolo[3,4-c]pyridin-6-yl]-(5-methoxypyrazin-2-yl)methanone], the IC50 turned out to be 522 nM. Compared with the last compound, the IC50 is about 66-fold higher.

`Cc1cc(F)cc(-c2c3c(nn2C)[C@H](C)N(C(=O)c2cnn(C)c2C)CC3)c1` [Example 327, (1,5-Dimethylpyrazol-4-yl)-[(7S)-3-(3-fluoro-5-methyl-phenyl)-2,7-dimethyl-5,7-dihydro-4H-pyrazolo[3,4-c]pyridin-6-yl]methanone] displayed a half-inhibitory concentration (IC50) of 55.3 nM.

In turn, `CC(C)c1c(C(=O)N2CCc3c(nn(C)c3-c3cc(F)c(F)c(F)c3)[C@@H]2C)cnn1C` [Example 328, [(7S)-2,7-Dimethyl-3-(3,4,5-trifluorophenyl)-5,7-dihydro-4H-pyrazolo[3,4-c]pyridin-6-yl]-(5-isopropyl-1-methyl-pyrazol-4-yl)methanone] displayed an IC50 of 1090 nM.

Compound `C[C@H]1c2nn(C)c(-c3cc(F)c(F)c(F)c3)c2CCN1C(=O)c1cnn(C(F)(F)F)c1` [Example 329, [(7S)-2,7-Dimethyl-3-(3,4,5-trifluorophenyl)-5,7-dihydro-4H-pyrazolo[3,4-c]pyridin-6-yl]-[1-(trifluoromethyl)pyrazol-4-yl]methanone] yielded an IC50 of 5080 nM.

`C[C@H]1c2nn(C)c(-c3cc(F)c(F)c(F)c3)c2CCN1C(=O)c1cnn(C)c1C(F)F` [Example 330, [5-(Difluoromethyl)-1-methyl-pyrazol-4-yl]-[(7S)-2,7-dimethyl-3-(3,4,5-trifluorophenyl)-5,7-dihydro-4H-pyrazolo[3,4-c]pyridin-6-yl]methanone] returned a 50% inhibitory concentration (IC50) of 102 nM.

`C[C@H]1c2nn(C)c(-c3cc(F)c(F)c(F)c3)c2CCN1C(=O)c1cnn(C2CC2)c1` [Example 331, (1-Cyclopropylpyrazol-4-yl)-[(7S)-2,7-dimethyl-3-(3,4,5-trifluorophenyl)-5,7-dihydro-4H-pyrazolo[3,4-c]pyridin-6-yl]methanone] returned an IC50 of 250 nM. Compared with the last compound, the IC50 is about 2.5-fold higher.

Compound `C[C@H]1c2nn(C)c(-c3cc(F)c(F)c(F)c3)c2CCN1C(=O)c1cn(C2CC2)nc1C(F)(F)F` [Example 332, [1-Cyclopropyl-3-(trifluoromethyl)pyrazol-4-yl]-[(7S)-2,7-dimethyl-3-(3,4,5-trifluorophenyl)-5,7-dihydro-4H-pyrazolo[3,4-c]pyridin-6-yl]methanone] yielded an IC50 of 143 nM.

For the origin of these results see patent publication US11820766B2, “Monoacylglycerol lipase modulators” (Janssen Pharmaceutica NV, priority 2018, dated 2023).
